Earlier results in patent US8535722B2, “Functionally graded biocompatible coating and coated implant” (priority 2005, dated 2013).

In the case of `[Ag]` [Ag/Ag^+, silver], the “threshold of cytotoxicity in vivo” value is given as 10 ppm.
